# From patent US20090326008A1, “NF-kappa B Inhibitor” (priority 2006, published 2009)
# What was measured:
# Type in all cases: cell-based, human
# [1] = tested on: NF-κB; assay: NF-kappaB reporter assay (pNF-kappaB-SEAP) in IL-1β-stimulated MKN-45 cells; details: IL-1β 2 ng/mL for 6 hours, DMSO (0.05%) control = 1.00, triplicate
# Experimental: pNF-kappaB-SEAP was obtained from Clonetech Laboratories Inc.
# Cryopreserved MKN-45 cells (product of JCRB (Japanese Collection of Research Bioresources)) were thawed and cultured in a standard medium in an incubator (37° C., 5% CO2). Every three to five days, the cells were recovered by treatment with Trypsin-EDTA, then adequately diluted and subcultured. MKN-45 cells subcultured two or more times with a survival rate of 95% or more were used in each experiment.
# The subcultured MKN-45 cells were harvested using Trypsin-EDTA solution, and the number of viable cells was counted. The cells were suspended in a standard medium to yield a 1.5×10^5 cells/mL suspension. A 24-well plate was seeded with 500 μL/well of the cell suspension, and the cells were cultured in an incubator (37° C., 5% CO2).
# The day after seeding, transfection was performed according to the following protocol.
# (4.1) Preparation of Plasmid Solution 4 μL of 0.1 μg/μL pNFkappaB-SEAP was placed into each well and diluted with 50 μL of OPTI-MEM I (product of Invitrogen Japan K.K.) by mixing by inversion.
# 1 μL of Lipofectamine 2000 reagent (product of Invitrogen) was placed into each well and diluted with 50 μL of OPTI-MEM I (product of Life Technologies Inc.) by mixing by inversion. The mixture was allowed to stand at room temperature for 5 to 10 minutes to prepare a Lipofectamine dilution.
# The plasmid solution and the Lipofectamine dilution were mixed by inversion and allowed to stand at room temperature for 20 to 30 minutes to prepare a transfection mixture.
# The culture medium was removed from the 24-well plate by suction. While care was taken not to dry the subcultured MKN-45 cells, the inner surface of the wells was washed with 1 mL/well of PBS. After the medium was replaced with 500 μL/well of OPTI-MEM I (product of Life Technologies Inc.), 100 μL/well of the transfection mixture was added, and the cells were cultured in a incubator (37° C., 5% CO2). After about 5 hours of incubation, the medium was replaced with a standard medium, and the cells were further cultured in a CO2 incubator (37° C., 5% CO2) until the following day.
# On the following morning, the culture medium supernatant was removed by suction and replaced with 1 mL/well of the test compound solution or control solution diluted with a standard medium. The cells were cultured in a CO2 incubator (37° C., 5% CO2) for 1 hour. Each experiment was performed in triplicate.
# 200 ng/mL IL-1β was added in an amount of 10 μL/well (final concentration: 2 ng/mL), and the cells were cultured in a CO2 incubator (37° C., 5% CO2) for 6 hours.
# A reporter assay was performed using Reporter Assay Kit-SEAP (product of Toyobo Co.) according to the manufacturer's protocol.
# More specifically, 500 μL of the culture broth was transferred into a tube and centrifuged at 15,000 rpm for 5 minutes at 4° C. The supernatant was transferred into a 96-well white plate. The positive control included in the Reporter Assay Kit-SEAP, and a standard medium as a blank control were each added in an amount of 20 μL/well to the 96-well white plate. Further, an inhibitor for inhibiting the AP activity of the MKN-45 cells was added in an amount of 20 μL/well. After sealing the plate, the contents were mixed well. The plate was placed into a CO2 incubator (37° C., 5% CO2) and allowed to stand for 30 minutes. Subsequently, the plate was allowed to stand on ice for 1 minute, followed by addition of 160 μL/well of Lumi-Phos Plus (a chemiluminescent substrate, product of Lumigen Inc.). The plate was sealed again and placed in a light-shielded state into a CO2 incubator (37° C., 5% CO2). After the plate was allowed to stand for 15 to 30 minutes, luminescence was measured for about 5 to about 10 seconds using a luminometer.
# The results of the reporter assay were expressed as Percent Control (or Inhibition), calculated according to the following formulae. The luminescence of each sample was calculated by subtracting the average of blank samples.
# [2] = tested on: COX2; assay: Relative COX2 mRNA expression in IL-1β-stimulated MKN-45 cells (real-time PCR); details: IL-1β-stimulated DMSO-treated cells = 100%, ACTB reference
# Experimental: (§1) RNA was extracted from the cells used in Example 2 according to the manufacturer's protocol for ABI Prism 6100 Nucleic Acid PrepStation (a nucleic acid isolation system, product of Applied Biosystems). More specifically, after removal of the culture supernatant and washing with 1 mL of PBS, 250 μL of Nucleic Acid Purification Lysis Solution (Part No. 4305895, Applied Biosystems) was added, and then agitated using a shaker for 2 to 3 minutes. The Lysis Solution containing the cell lysate was collected, and the total amount was transferred to the wells of RNA Purification Tray (Part No. 4305673, Applied Biosystems), which had been pre-wet with 40 μL of Nucleic Acid Purification Wash Solution I (Part No. 4305891, Applied Biosystems) beforehand. Aspiration (20% pressure) was performed for 2 minutes to adsorb the sample onto the RNA Purification Tray, followed by sequentially adding and aspirating (20% pressure, 2 min.) 500 μL of Wash Solution I, Nucleic Acid Purification (Part No. 4305891, Applied Biosystems), 400 μL of Wash Solution II, Nucleic Acid Purification (Part No. 4305890, product of Applied Biosystems), 400 μL of the Wash Solution II, and 300 μL of the Wash Solution II in that order. Aspiration (90% pressure) was performed for 5 minutes to remove the water content from the RNA Purification Trays. After addition of 150 μL of Elution Solution, Nucleic Acid Purification (Part No. 4305893, product of Applied Biosystems), aspiration (20% pressure) was performed for 2 minutes, while collecting the outflow. This was used as collected RNA solution.
# (§2) Absorbance of the collected RNA solution at 260 nm was measured using a microplate spectrophotometer (“SpectraMax Plus”, product of Molecular Devices) with an analysis software (“SOFTmaxPRO ver.3.1.2”, product of Molecular Devices), and the RNA concentration was determined from the absorbance. Likewise, absorbance at 280 nm was measured and the purity of the RNA was determined using the analysis software.
# (§3) cDNA was synthesized according to the manufacturer's protocol for TaqMan® Reverse Transcription Reagents (Part No. N808-0234, product of Applied Biosystems). More specifically, about 0.5 μg of RNA, 2.5 μL of 10×RT buffer, 5.5 μL of MgCl2 solution, 5 μL of dNTP mixture, 1.25 μL of random hexamer (primers), 0.5 μL of RNase inhibitor, and 0.63 μL of MultiScribe Reverse Transcriptase (product of Applied Biosystems) were added to each collected RNA sample in a tube, and DEPC-treated water was added to make a total volume of 25 μL and stirred. A reaction consisting of 25° C. for 10 minutes, 48° C. for 30 minutes, and 95° C. for 5 minutes was performed using a PCR thermal cycler (“TaKaRa PCR Thermal Cycler Dice”, product of Takara Bio Inc.) to prepare a cDNA solution.
# (§4) PCR was performed according to the manufacturer's protocol for TaqMan® Gene Expression Assays (product of Applied Biosystems). More specifically, 5 μL of TaqMan® Fast Universal PCR Master Mix (product of Applied Biosystems), 0.5 μL of TaqMan® Gene Expression Assays for the target gene (gene-specific probe and primer sets, product of Applied Biosystems), and 4.5 μL of the above-obtained cDNA solution were added to each sample and stirred. A PCR reaction consisting of heating at 95° C. for 20 seconds, followed by 40 cycles consisting of heating at 95° C. for 3 seconds and annealing and extension at 60° C. for 30 seconds was performed using a real-time PCR device (“Applied Biosystems 7500 Real-Time PCR System”) with SDS v1.4 Software (product of Applied Biosystems). Threshold cycle (Ct) values were calculated using the software.
# (§5) The Assay IDs of the TaqMan® Gene Expression Assays for the target genes used are as follows:
# (§6) The expression level of each gene was determined according to the following formula using the level of ACTB as a reference standard.
# (§7) (Relative mRNA expression level)=2̂−{(Ct value of the target gene)−(Ct value of ACTB)} […]
# [3] = tested on: TNFα; assay: Relative TNFα mRNA expression in IL-1β-stimulated MKN-45 cells (real-time PCR); details: IL-1β-stimulated DMSO-treated cells = 100%, ACTB reference
# Experimental: as §1, §2, §3, §4, §5, §6, §7
# [4] = tested on: IL-8; assay: Relative IL-8 mRNA expression in IL-1β-stimulated MKN-45 cells (real-time PCR); details: IL-1β-stimulated DMSO-treated cells = 100%, ACTB reference
# Experimental: as §1, §2, §3, §4, §5, §6, §7
SMILES,"NF-kappaB reporter (SEAP luminescence) IL-1b(+) mean, relative to control [1]","COX2 relative mRNA expression level, Mean [2] [%]","TNFa relative mRNA expression level, Mean [3] [%]","IL-8 relative mRNA expression level, Mean [4] [%]"
COc1ccc(CC2SC(=O)NC2=O)c2c1N(CCCC(=O)Nc1ccccc1)C(=O)CC2 (centres unmarked) [Test Compound 608],0.71,42.4,30.8,36.5
COc1ccc(CC2SC(=O)NC2=O)c2c1N(CC(=O)Nc1ccc(C(F)(F)F)cc1)C(=O)CC2 (centres unmarked) [Test Compound 612],0.67,33.4,31.1,41.8
CCNC(=O)CCCN1C(=O)CCc2c(CC3SC(=O)NC3=O)ccc(OC)c21 (centres unmarked) [Test Compound 613],0.86,112.4,94.0,91.5
Cc1ccc(CC(=O)N2CCC(CCN3C(=O)CCc4c(CC5SC(=O)NC5=O)cccc43)CC2)cc1 (centres unmarked) [Test Compound 616],0.57,26.3,31.4,35.3
COc1ccc(CC2SC(=S)NC2=O)c2c1N(Cc1ccc(C(C)(C)C)cc1)C(=O)CC2 (centres unmarked) [Test Compound 914],0.53,32.9,66.7,61.9
COc1ccc(CC2SC(=S)NC2=O)c2c1N(Cc1ccc3ccccc3c1)C(=O)CC2 (centres unmarked) [Test Compound 971],0.56,30.8,63.4,55.9
COc1ccc(CC2SC(=S)NC2=O)c2c1N(CC1CC1)C(=O)CC2 (centres unmarked) [Test Compound 980],0.63,53.8,98.0,79.4
COc1ccc(CC2SC(=S)NC2=O)c2c1N(CCOc1ccccc1)C(=O)CC2 (centres unmarked) [Test Compound 981],0.68,37.8,75.7,70.4
Cc1ccc(CN2C(=O)CCc3c(CC4SC(=S)NC4=O)cccc32)cc1 (centres unmarked) [Test Compound 993],0.59,27.6,46.8,45.6
O=C1NC(=S)SC1Cc1ccc2c(c1)CCC(=O)N2Cc1ccc(-c2ccccc2)cc1 (centres unmarked) [Test Compound 995],0.66,28.1,29.3,38.3
O=C1NC(=S)SC1Cc1cccc2c1CCC(=O)N2Cc1ccc2ccccc2c1 (centres unmarked) [Test Compound 996],0.43,31.3,41.3,50.1
